# Experimental data taken from paper PMC11347369, “Synthesis and antibacterial action of 3’,6’-disubstituted spectinomycins” (The Journal of Antibiotics, 2024).
# Columns and labels:
# [1] = system: M. tuberculosis H37Rv ∆1258c; assay: microbe, parasite or virus in culture; assay type: cell-based; conditions: Mycobacterium tuberculosis, 168 h
# [2] = system: M. abscessus ATCC 19977 ∆2780c; assay: microbe, parasite or virus in culture; assay type: cell-based, Mycobacterium abscessus; conditions: Mycobacteroides abscessus, ATCC19977, 72 h, read-out: ∆2780c MIC
# [3] = system: M. smegmatis strain MC^2 155; assay: MIC broth microdilution, M. smegmatis; assay type: cell-based, Mycobacterium smegmatis; conditions: Mycolicibacterium smegmatis, MC^2155, 72 h; M. smegmatis strain MC^2 155; 3 days; read-out: WT MIC
# [4] = biological target: T1, M. smegmatis ribosomes (strain SZ380) (Mycolicibacterium smegmatis, UniProt A0QSG6); assay: Mycobacterial cell-free translation inhibition assay; assay type: biochemical, Mycobacterium smegmatis
# T1 construct: S30 extracts were prepared by addition of dithiothreitol (DTT) to 1 mM and centrifugation; endogenous in cells; host or cells: M. smegmatis strain SZ380, S30 cell extract
# Description: Mycobacterial cell-free translation inhibition assays were performed as described previously. In brief, M. smegmatis strain SZ380 bacterial cells were disrupted and emulsified with a microfluidizer processor (Microfluidics, Westwood, MA, USA) at 25,000 lb/in^2. S30 extracts were prepared by addition of dithiothreitol (DTT) to 1 mM and centrifugation at 30,000 × g at 4 °C. Translation reaction mixtures containing either test article or DMSO vehicle control and 4 μl of the S30 extract, 0.2 mM amino acid mix, 6 μg tRNA (Sigma), 0.4 μg hFluc mRNA, 0.3 μl protease inhibitor (complete, EDTA-free, Roche), 12 U RNAse inhibitor (Ribolock, Thermo Scientific), 6 μl S30 premix without amino acids (Promega), plus water to a final reaction volume of 15 μl were incubated for 1 h at 37 °C. The reaction was stopped on ice before adding 75 μl of luciferase assay reagent (Promega) and recording of luminescence. Regression analysis and IC50 calculations were performed using GraphPad Prism version 9.3.1 by using the equation [log(inhibitor) vs. response–Variable slope (four parameters)] with the fitting method: least squares (ordinary) fit. Y = Bottom + (Top-Bottom)/(1 + 10^((X-LogIC50))).
# E. faecalis ATCC 29212 = assay: MIC broth microdilution, E. faecalis; assay type: cell-based; conditions: Enterococcus faecalis, ATCC29212; E. faecalis ATCC 29212; read-out: Minimum Inhibitory Concentration
# E. faecium ATCC 19434 = assay: MIC broth microdilution, E. faecium; assay type: cell-based; conditions: Enterococcus faecium, ATCC19434; E. faecium ATCC 19434; read-out: Minimum Inhibitory Concentration
# S. aureus USA300 = assay: MIC broth microdilution, S. aureus; assay type: cell-based; conditions: Staphylococcus aureus; S. aureus USA300; read-out: Minimum Inhibitory Concentration
# [5] = system: S. epidermidis ATCC 14990; assay: MIC broth microdilution, S. epidermidis; assay type: cell-based; conditions: Staphylococcus epidermidis, ATCC14990; S. epidermidis ATCC 14990; read-out: Minimum Inhibitory Concentration
# S. pneumoniae R6 = assay: MIC broth microdilution, S. pneumoniae; assay type: cell-based; conditions: Streptococcus pneumoniae, read-out: Minimum Inhibitory Concentration
# S. pyogenes ATCC 700294 = assay: MIC broth microdilution, S. pyogenes; assay type: cell-based; conditions: Streptococcus pyogenes, ATCC700294; S. pyogenes ATCC 700294; read-out: Minimum Inhibitory Concentration
# A. baumannii ATCC 19606 = assay: MIC broth microdilution, A. baumannii; assay type: cell-based, Acinetobacter baumannii; conditions: A. baumannii ATCC 19606
# [6] = system: K. pneumoniae ATCC 700603; assay: MIC broth microdilution, K. pneumoniae; assay type: cell-based, Klebsiella pneumoniae; conditions: K. pneumoniae ATCC 700603
# P. aeruginosa ATCC 15692 = assay: MIC broth microdilution, P. aeruginosa; assay type: cell-based, Pseudomonas aeruginosa; conditions: P. aeruginosa ATCC 15692
# E. coli K12 ∆tolC = assay: microbe, parasite or virus in culture; assay type: cell-based; conditions: Escherichia coli, read-out: Minimum Inhibitory Concentration
# Gram-positive species = assay: MIC, Gram-positive panel compared to SPC; assay type: cell-based; conditions: against all Gram-positive species
# M. tuberculosis H37Rv [7] = system: M. tuberculosis H37Rv
# M. abscessus ATCC 19977 [8] = system: M. abscessus ATCC 19977
# E. coli K12 [9] = system: E. coli K12
# M. tuberculosis H37Rv [10] = assay: microbe, parasite or virus in culture; conditions: Mycobacterium tuberculosis, 168 h, read-out: WT MIC
# M. abscessus ATCC 19977 [11] = assay: microbe, parasite or virus in culture; conditions: Mycobacteroides abscessus, ATCC19977, 72 h, read-out: WT MIC
# E. coli K12 [12] = assay: microbe, parasite or virus in culture; conditions: Escherichia coli, K12, read-out: Minimum Inhibitory Concentration
# T1 sequence (A0QSG6 whole entry): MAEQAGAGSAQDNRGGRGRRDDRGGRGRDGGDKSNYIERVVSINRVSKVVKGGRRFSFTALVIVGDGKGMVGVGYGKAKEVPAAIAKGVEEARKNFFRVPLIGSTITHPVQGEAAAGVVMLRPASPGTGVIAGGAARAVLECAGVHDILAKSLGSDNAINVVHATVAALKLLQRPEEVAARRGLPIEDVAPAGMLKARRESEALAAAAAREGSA
structure (smiles),measurement,setting,value
"CCCC[C@@H]1CC(=O)[C@]2(O)O[C@@H]3[C@@H](NC)[C@@H](O)[C@@H](NC)[C@H](O)[C@H]3O[C@@H]2O1 [TroSPC (2), trospectomycin, reference compound]",MIC,[1],2 µg/mL
same,MIC,[2],16 µg/mL
same,MIC,[3],32 µg/mL
same,IC50,[4],510 nM
same,MIC,E. faecalis ATCC 29212,64 µg/mL
same,MIC,E. faecium ATCC 19434,64 µg/mL
same,MIC,S. aureus USA300,64 µg/mL
same,MIC,[5],32 µg/mL
same,MIC,S. pneumoniae R6,4 µg/mL
same,MIC,S. pyogenes ATCC 700294,4 to 8 µg/mL
same,Minimum Inhibitory Concentration,A. baumannii ATCC 19606,>64 µg/mL
same,MIC,"A. baumannii ATCC 19606; Acinetobacter baumannii, ATCC19606, read-out: Minimum Inhibitory Concentration",> 64 µg/mL
same,Minimum Inhibitory Concentration,[6],>64 µg/mL
same,MIC,"[6]; Klebsiella pneumoniae, ATCC700603, read-out: Minimum Inhibitory Concentration",> 64 µg/mL
same,Minimum Inhibitory Concentration,P. aeruginosa ATCC 15692,>64 µg/mL
same,MIC,"P. aeruginosa ATCC 15692; Pseudomonas aeruginosa, ATCC15692, read-out: Minimum Inhibitory Concentration",> 64 µg/mL
same,MIC,E. coli K12 ∆tolC,16 µg/mL
same,increase in activity compared to SPC,Gram-positive species,> 4 fold
same,Efflux Ratio,M. tuberculosis H37Rv [7],16
same,Efflux Ratio,M. abscessus ATCC 19977 [8],4
same,E. coli Efflux Ratio,E. coli K12 [9],>4
same,MIC,M. tuberculosis H37Rv [10],32 µg/mL
same,MIC,M. abscessus ATCC 19977 [11],64 µg/mL
same,MIC,E. coli K12 [12],> 64 µg/mL
